Test results: patent US20210040041A1, “QUINOLINE DERIVATIVES AND PREPARATION METHODS AND USES THEREOF” (DONGGUAN HEC PESTICIDES R&D CO., LTD., priority 2018, published 2021)

Legend:
[1] = tested on: Armyworm; test: Test examples 2: leaf dipping method, Armyworm; assay type: in vivo; conditions: Mythimna separata, foliar, 72 h, after 3 days, read-out: The mortality rate (%) of the compound to Armyworm; for mortality at 12.5 µg/mL: 12.5 mg/L; for mortality at 25 µg/mL: 25 mg/L; for mortality at 50 µg/mL: 50 mg/L
Procedure: (§1) A certain amount of compound (0.0001 g) was weighed by using an analytical balance, and prepared to a mother liquid (1%) with N, N-dimethylformamide containing 1% Tween-80 emulsifier, and then the mother liquid was diluted with distilled water for standby.
(§2) Leaf dipping method: an appropriate amount of corn leaves/cabbage/cowpea were infiltrated in the prepared liquid and dried in the shade naturally, and then placed in a culture dish with filter paper; armyworm/Diamondback moth/Beet Armyworm larvae in the 2-3rd instar were inoculated to the corn leaves, 10 heads per dish, and the dishes were cultured in an observation room at 24-27° C. The results were investigated after 3 days. […] The test concentrations were 50 mg/L, 25 mg/L, 12.5 mg/L, 6.25 mg/L, 3.13 mg/L, 1.56 mg/L.

[2] = tested on: Diamondback moth; test: Test examples 2: leaf dipping method, Diamondback moth; assay type: in vivo; conditions: Plutella xylostella, foliar, 72 h, after 3 days, read-out: The mortality rate (%) of the compound to Diamondback moth; for mortality at 12.5 µg/mL: 12.5 mg/L; for mortality at 25 µg/mL: 25 mg/L; for mortality at 50 µg/mL: 50 mg/L
Procedure: as §1, §2

SMILES | mortality at 12.5 µg/mL [1] [%] | mortality at 25 µg/mL [1] [%] | mortality at 50 µg/mL [1] [%] | mortality at 12.5 µg/mL [2] [%] | mortality at 25 µg/mL [2] [%] | mortality at 50 µg/mL [2] [%]
CCOCCOC(=O)Oc1c(C)c(CC)nc2cc(C)c(Oc3ccc(OC(F)(F)F)cc3)c(C)c12 [Example 40, 2-ethoxyethyl (2-ethyl-3,5,7-trimethyl-6-(4-(trifluoromethoxy)phenoxy)quinolin-4-yl) carbonate] | 95 | 100 | 100 | 95 | 100 | 100
CCc1nc2cc(C)c(Oc3ccc(OC(F)(F)F)cc3)c(C)c2c(OC(=O)OCCOC(C)C)c1C [Example 41, 2-ethyl-3,5,7-trimethyl-6-(4-(trifluoromethoxy)phenoxy)quinolin-4-yl (2-isopropoxyethyl) carbonate] | 80 | 100 | 100 | 90 | 100 | 100
CCc1nc2ccc(Oc3ccc(OC(F)(F)F)cc3)c(C)c2c(OC(=O)OCCOC)c1C [Example 39, 2-ethyl-3,5-dimethyl-6-(4-(trifluoromethoxy)phenoxy)quinolin-4-yl (2-methoxyethyl) carbonate] | 100 | 100 | 100 | 100 | 100 | 100
CCc1nc2ccc(Oc3ccc(C(C)(C)C)cc3)c(C)c2c(OC(=O)OCCOC)c1C [Example 22, 6-(4-(tert-butyl)phenoxy)-2-ethyl-3,5-dimethylquinolin-4-yl (2-methoxyethyl) carbonate] | 80 | 95 | 100 | 85 | 90 | 100
CCOCCOC(=O)Oc1c(C)c(CC)nc2cc(C)c(Oc3ccc(OC(F)(F)F)cc3)cc12 [Example 17, 2-ethoxyethyl (2-ethyl-3,7-dimethyl-6-(4-(trifluoromethoxy)phenoxy)quinolin-4-yl) carbonate] | 100 | 100 | 100 | 100 | 100 | 100
CCc1nc2cc(C)c(Oc3ccc(C(C)(C)C)cc3)cc2c(OC(=O)OCCOC)c1C [Example 4, 6-(4-(tert-butyl)phenoxy)-2-ethyl-3,7-dimethylquinolin-4-yl (2-methoxyethyl)carbonate] | 80 | 90 | 100 | 90 | 100 | 100
CCc1nc2cc(C)c(Oc3ccc(C(C)(C)C)cc3)c(C)c2c(OC(=O)OCC2CCCO2)c1C (stereo not drawn) [Example 36, 6-(4-(tert-butyl)phenoxy)-2-ethyl-3,5,7-trimethylquinolin-4-yl ((tetrahydrofuran-2-yl)methyl) carbonate] | 90 | 100 | 100 | 85 | 95 | 100
CCc1nc2ccc(Oc3ccc(C(C)(C)C)cc3)c(C)c2c(OC(=O)OCC2CCCO2)c1C (stereo not drawn) [Example 35, 6-(4-(tert-butyl)phenoxy)-2-ethyl-3,5-dimethylquinolin-4-yl ((tetrahydrofuran-2-yl)methyl) carbonate] | 80 | 95 | 100 | 80 | 90 | 100
CCc1nc2cc(C)c(Oc3ccc(C(C)(C)C)cc3)c(C)c2c(OC(=O)OCCOC)c1C [Example 26, 6-(4-(tert-butyl)phenoxy)-2-ethyl-3,5,7-trimethylquinolin-4-yl (2-methoxyethyl) carbonate] | 90 | 100 | 100 | 85 | 95 | 100
